The values that follow come from ChEMBL document CHEMBL5608253, “Discovery and Optimization of Aryl Piperidinone Ureas as Selective Formyl Peptide Receptor 2 Agonists” (ACS Med Chem Lett, 2024).

The target in data set [1] is T1, N-formyl peptide receptor 2 (Homo sapiens, UniProt P25090).
T1 sequence (P25090 whole entry): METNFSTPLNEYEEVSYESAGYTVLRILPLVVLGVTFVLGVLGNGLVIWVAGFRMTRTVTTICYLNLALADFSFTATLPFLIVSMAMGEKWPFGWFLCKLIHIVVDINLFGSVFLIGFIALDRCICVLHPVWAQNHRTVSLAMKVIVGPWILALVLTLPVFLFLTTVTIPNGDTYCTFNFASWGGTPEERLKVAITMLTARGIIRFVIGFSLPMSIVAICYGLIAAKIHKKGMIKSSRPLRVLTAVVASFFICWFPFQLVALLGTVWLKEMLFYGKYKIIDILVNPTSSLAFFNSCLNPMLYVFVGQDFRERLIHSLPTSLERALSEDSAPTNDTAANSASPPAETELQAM
The experiment in a line: Agonist activity at human FPR2 expressed in CHO cells assessed as forskolin -induced cAMP level incubated for 30 mins in presence of IBMX by HTRF HiRange cAMP assay. Format: functional, cell-based. A general note: Changes in cAMP serve as a functional read-out for many G protein-coupled receptors.

A short description of data set [2]: Agonist activity at rat FPR2 by cAMP assay.
A short description of data set [3]: Permeability across apical to basal side in human Caco-2 cells. It is filed as ADME, cell-based. Conditions: read-out: permeability. In general terms: Caco-2 monolayers are a common model of the intestinal barrier.
Data set [4] in a line: Permeability across basal to apical side in human Caco-2 cells. Format: ADME, cell-based. Conditions: read-out: permeability.
Data set [5] is described as follows: Protein binding in human plasma assessed as free fraction. Format: ADME, cell-free.
Data set [6] can be described thus: Protein binding in rat plasma assessed as free fraction. It is filed as ADME, cell-free.
A further data set deals with T2, Cytochrome P450 1A2 (Homo sapiens, UniProt P05177).
T2 sequence (P05177 whole entry): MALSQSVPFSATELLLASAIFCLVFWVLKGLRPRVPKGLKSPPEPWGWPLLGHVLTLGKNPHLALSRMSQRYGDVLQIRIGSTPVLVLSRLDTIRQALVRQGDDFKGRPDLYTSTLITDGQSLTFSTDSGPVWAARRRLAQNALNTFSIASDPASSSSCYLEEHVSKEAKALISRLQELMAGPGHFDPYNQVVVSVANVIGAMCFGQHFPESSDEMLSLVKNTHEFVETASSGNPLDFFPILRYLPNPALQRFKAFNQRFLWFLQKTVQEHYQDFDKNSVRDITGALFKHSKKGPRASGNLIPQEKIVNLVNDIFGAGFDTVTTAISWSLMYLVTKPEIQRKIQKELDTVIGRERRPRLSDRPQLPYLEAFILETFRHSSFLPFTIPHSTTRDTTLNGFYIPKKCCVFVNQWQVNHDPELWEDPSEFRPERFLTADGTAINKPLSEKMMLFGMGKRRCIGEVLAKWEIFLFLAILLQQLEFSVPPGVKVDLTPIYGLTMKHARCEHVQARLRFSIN
Nature of the data set: Inhibition of CYP1A2 (unknown origin). It is filed as ADME.

The target in another data set is Cytochrome P450 2C9 (Homo sapiens, UniProt P11712). Nature of the data set: Inhibition of CYP2C9 (unknown origin). It is filed as ADME.
For the next data set, the target named is Cytochrome P450 2C19 (Homo sapiens, UniProt P33261). The experiment in a line: Inhibition of CYP2C19 (unknown origin). Format: ADME.
For the next data set, the target named is Cytochrome P450 2D6 (Homo sapiens, UniProt P10635). Nature of the data set: Inhibition of CYP2D6 (unknown origin). It is filed as ADME.
A further data set addresses Cytochrome P450 3A4 (Homo sapiens, UniProt P08684). Nature of the data set: Inhibition of CYP3A4 (unknown origin). It is filed as ADME.
Data set [7] can be described thus: Cmax in rat at 3 mg/kg, po. It is filed as ADME, organism-based. Conditions: in vivo.
The nature of data set [8]: AUC (total) in rat at 3 mg/kg, po. Format: ADME, organism-based. Conditions: in vivo.
The next data set relates to Rattus norvegicus. Nature of the data set: Anti-inflammatory activity in LPS-treated rat model assessed as increase in IL-10 level at 10 mg/kg measured after 2 hrs relative to control. It is filed as functional.
The nature of data set [9]: Drug concentration in plasma of LPS-treated rat model at 10 mg/kg measured after 2 hrs. Format: ADME, organism-based.

Sequence of Cytochrome P450 3A4 (P08684 whole entry): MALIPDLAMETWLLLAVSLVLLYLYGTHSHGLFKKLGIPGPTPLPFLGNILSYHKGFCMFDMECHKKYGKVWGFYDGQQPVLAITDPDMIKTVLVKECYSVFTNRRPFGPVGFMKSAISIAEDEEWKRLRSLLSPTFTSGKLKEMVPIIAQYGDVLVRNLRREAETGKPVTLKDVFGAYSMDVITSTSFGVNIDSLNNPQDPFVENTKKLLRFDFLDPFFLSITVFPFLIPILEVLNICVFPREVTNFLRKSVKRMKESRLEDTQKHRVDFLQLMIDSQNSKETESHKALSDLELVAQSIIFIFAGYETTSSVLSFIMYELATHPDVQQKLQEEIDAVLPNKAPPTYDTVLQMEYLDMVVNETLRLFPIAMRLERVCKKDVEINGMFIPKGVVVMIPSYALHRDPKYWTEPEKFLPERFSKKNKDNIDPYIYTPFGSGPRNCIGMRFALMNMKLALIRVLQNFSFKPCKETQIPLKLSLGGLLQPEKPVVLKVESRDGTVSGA
Sequence of Cytochrome P450 2D6 (P10635 whole entry): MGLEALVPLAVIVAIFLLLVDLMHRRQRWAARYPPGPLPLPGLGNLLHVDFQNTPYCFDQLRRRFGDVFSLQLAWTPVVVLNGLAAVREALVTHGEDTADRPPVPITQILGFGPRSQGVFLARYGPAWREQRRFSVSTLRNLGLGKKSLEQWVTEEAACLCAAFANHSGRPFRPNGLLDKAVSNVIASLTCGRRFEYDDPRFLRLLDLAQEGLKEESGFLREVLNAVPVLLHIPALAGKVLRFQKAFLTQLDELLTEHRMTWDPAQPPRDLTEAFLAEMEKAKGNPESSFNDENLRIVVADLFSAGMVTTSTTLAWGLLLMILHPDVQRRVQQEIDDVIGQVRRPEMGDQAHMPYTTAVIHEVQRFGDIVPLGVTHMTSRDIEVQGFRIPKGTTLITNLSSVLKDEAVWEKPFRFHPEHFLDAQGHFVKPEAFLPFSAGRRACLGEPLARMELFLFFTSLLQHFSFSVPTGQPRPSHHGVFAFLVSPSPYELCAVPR
Sequence of Cytochrome P450 2C19 (P33261 whole entry): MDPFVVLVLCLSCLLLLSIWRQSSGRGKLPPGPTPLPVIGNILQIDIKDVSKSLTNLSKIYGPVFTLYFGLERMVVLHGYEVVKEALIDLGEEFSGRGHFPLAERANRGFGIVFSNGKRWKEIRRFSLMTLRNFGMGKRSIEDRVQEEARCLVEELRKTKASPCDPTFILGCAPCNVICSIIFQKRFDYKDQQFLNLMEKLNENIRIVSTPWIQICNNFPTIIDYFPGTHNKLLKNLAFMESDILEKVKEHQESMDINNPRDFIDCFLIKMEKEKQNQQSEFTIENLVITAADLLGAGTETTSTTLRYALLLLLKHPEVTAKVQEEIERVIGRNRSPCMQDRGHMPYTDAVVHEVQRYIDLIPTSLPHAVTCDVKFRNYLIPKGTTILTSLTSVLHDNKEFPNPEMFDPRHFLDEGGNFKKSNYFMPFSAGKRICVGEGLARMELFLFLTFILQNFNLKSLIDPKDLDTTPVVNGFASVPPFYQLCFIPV
Sequence of Cytochrome P450 2C9 (P11712 whole entry): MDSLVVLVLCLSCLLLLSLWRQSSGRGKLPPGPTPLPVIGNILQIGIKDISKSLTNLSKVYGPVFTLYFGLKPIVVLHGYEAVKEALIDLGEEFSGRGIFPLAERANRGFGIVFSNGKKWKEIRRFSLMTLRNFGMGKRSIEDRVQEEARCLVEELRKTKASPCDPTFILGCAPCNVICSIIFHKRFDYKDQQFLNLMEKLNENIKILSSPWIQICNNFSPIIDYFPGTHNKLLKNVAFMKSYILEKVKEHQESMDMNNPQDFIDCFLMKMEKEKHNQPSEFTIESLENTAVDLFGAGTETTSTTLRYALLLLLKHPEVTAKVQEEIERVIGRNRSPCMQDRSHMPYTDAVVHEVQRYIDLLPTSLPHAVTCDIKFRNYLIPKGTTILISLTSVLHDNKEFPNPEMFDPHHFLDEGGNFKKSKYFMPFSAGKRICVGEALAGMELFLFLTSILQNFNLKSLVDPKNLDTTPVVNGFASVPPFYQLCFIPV

In general, EC50 refers to the concentration at which the effect is half-maximal. For orientation: fraction unbound means the share of the substance not bound to proteins or other matrix. By Cmax is commonly meant the peak of the concentration-time curve. What is called AUC is concentration integrated over time. `CS(=O)(=O)Nc1ccccc1-c1ccc(N2CCC[C@@H](NC(=O)Nc3ccc(Cl)cc3F)C2=O)cc1`: the EC50 in data set [1] was 0.2 nM; in [2], 0.6 nM. Further, in [3], the Papp A→B came out at 4.4 ×10⁻⁶ cm/s. Besides, the Papp B→A in [4] amounted to 29.1 ×10⁻⁶ cm/s. Moreover, the fraction unbound in data set [5] and in [6] was 0.03 in each case. Besides, the INH on Cytochrome P450 1A2, at Cytochrome P450 2C9, on Cytochrome P450 2C19, at Cytochrome P450 2D6 and at Cytochrome P450 3A4 was more than 10 µM each time. This molecule had a Cmax in [7] of 610 nM. Further, in [8], the area under the curve (AUC) worked out at 2.7 µM·h. Further, the Activity in the data set with Rattus norvegicus is 128%. The same molecule displayed a concentration at 2 h in [9] of 1700 nM.
Turning to `CS(=O)(=O)Nc1ccccc1-c1ccc(N2CCC[C@@H](NC(=O)Nc3ccc(C(F)(F)F)nc3)C2=O)cc1`, the EC50 in data set [1] was determined as 10 nM.
For the molecule `CS(=N)(=O)c1ccccc1-c1ccc(N2CCC[C@@H](NC(=O)Nc3ccc(C(F)(F)F)cc3)C2=O)cc1` (stereo in doubt; 9), the 50% effective concentration (EC50) in data set [1] was determined as 1.6 nM.
Still for that read-out and setting: in the case of `NC(=O)c1ccccc1-c1ccc(N2CCC[C@@H](NC(=O)Nc3ccc(C(F)(F)F)cc3)C2=O)cc1` it was 2.8 nM.
`CS(=O)(=O)Nc1ccccc1-c1ccc(N2CCC[C@@H](NC(=O)Nc3ccc(Cl)cc3)C2=O)cc1`: the EC50 was 0.15 nM in data set [1] and 0.4 nM in data set [2]. Also, the Papp A→B in [3] was less than 1.5 ×10⁻⁶ cm/s. For the same molecule, in data set [4], the Papp B→A was found to be 41.8 ×10⁻⁶ cm/s. Moreover, the fraction unbound in data set [5] is 0.02; in data set [6] it was 0.01. The INH on Cytochrome P450 1A2, on Cytochrome P450 2C9, at Cytochrome P450 2C19, on Cytochrome P450 2D6 and on Cytochrome P450 3A4 was more than 10 µM throughout. The same molecule registered a Cmax in data set [7] of 300 nM. This molecule also showed an exposure (AUC) in data set [8] of 1.13 µM·h. Moreover, in the data set with Rattus norvegicus, the Activity turned out to be 140%. Further, in data set [9], the concentration at 2 h was determined as 490 nM.
On to `COc1cnc(NC(=O)N[C@@H]2CCCN(c3ccc(-c4ccccc4NS(C)(=O)=O)cc3)C2=O)c(F)c1`, for which, in data set [3], the Papp A→B was 11 ×10⁻⁶ cm/s. In addition, in data set [4], the Papp B→A was 44 ×10⁻⁶ cm/s. Moreover, the free fraction (fraction unbound) was 0.12 in [5] and 0.08 in [6]. Also, the INH at Cytochrome P450 1A2, on Cytochrome P450 2C9, on Cytochrome P450 2C19, on Cytochrome P450 2D6 and on Cytochrome P450 3A4 was more than 10 µM each time. Besides, the highest level in data set [7] (Cmax) was 830 nM. For the same molecule, the AUC in data set [8] is 1.7 µM·h.
Turning to `CS(=O)(=O)Nc1ccccc1-c1ccc(N2CCC[C@@H](NC(=O)Nc3ccc(C(F)(F)F)cc3)C2=O)cc1`, the EC50 in data set [1] worked out at 0.14 nM; in [2], 0.5 nM. The Papp A→B in data set [3] was less than 1.5 ×10⁻⁶ cm/s. The Papp B→A in [4] was found to be 32.5 ×10⁻⁶ cm/s. The fraction unbound in data set [5] and in data set [6] was 0.01 throughout. Moreover, the INH at Cytochrome P450 1A2, at Cytochrome P450 2C9, on Cytochrome P450 2C19, on Cytochrome P450 2D6 and on Cytochrome P450 3A4 was more than 10 µM throughout. The highest level in data set [7] (Cmax) was 110 nM. In data set [8], this molecule had an exposure (AUC) of 0.45 µM·h. For the same molecule, the Activity in the data set on Rattus norvegicus worked out at 183%. The concentration at 2 h in [9] is 610 nM.
Consider `CS(=N)(=O)c1ccccc1-c1ccc(N2CCC[C@@H](NC(=O)Nc3ccc(C(F)(F)F)cc3)C2=O)cc1` (stereo in doubt; 10), for which, in data set [1], the EC50 is 9 nM.
Regarding `CS(=O)(=O)Nc1ccccc1-c1ccc(N2CCC[C@@H](NC(=O)Nc3ccc(C(F)(F)F)cc3F)C2=O)cc1`, the EC50 in [1] is 0.6 nM.
On the same count and under the same terms, under `COc1ccc(NC(=O)N[C@@H]2CCCN(c3ccc(-c4ccccc4NS(C)(=O)=O)cc3)C2=O)cc1` stands 0.3 nM; under `CS(=O)(=O)Nc1ccccc1-c1ccc(N2CCC[C@@H](NC(=O)Nc3ccc(C(F)(F)F)cn3)C2=O)cc1`, 4.5 nM.
